Patent publication US20100159030A1, “METHODS FOR DETECTING AND MODULATING THE SENSITIVITY OF TUMOR CELLS TO ANTI-MITOTIC AGENTS AND FOR MODULATING TURMORGENICITY” (NewSouth Innovations Pty Limited, priority 2007, published 2010)
Read-outs that look alike come from different tables or passages of the source.

How the values were obtained:
Assay type in all cases: cell-based, Human
[1] = tested on: Calu-6 cells; assay: Immunofluorescent staining of microtubules (α-tubulin) after drug treatment; details: 1 h, vs control
Experimental: Transfected Calu-6 cells were grown on sterile chamber slides until 60-70% confluent. Cells were then treated with paclitaxel and vincristine for 1 h at 10 nM. Cells were fixed in methanol and processed for staining as previously described (Don et al. (2004) supra) with minor modifications. Fixed cells were stained with α-tubulin (1:400 in 5% FCS/PBS, Sigma) for 30 min followed by Cy2 anti-mouse fluorescent tagged antibody (1:1,000 in 5% FCS/PBS, GE Healthcare). Slides were mounted on a coverslip using DAPI II Counterstain (Vysis Inc., Downers Grove, Ill.). Slides were viewed using a Zeiss Axioplan 2 Immunofluorescence Microscope (Mannheim, Germany) with Image-Pro® Plus 4.1 software (Media Cybernetics, L.P., Silver Spring, Md.).
To assess the effects of βIII downregulation on microtubule organization, immunofluorescence staining was performed on transfected Calu-6 cells as follows. Briefly, siRNA transfected cells were plated in glass chamber slides and allowed to reach 70% confluence. Cells were then treated with 10 nM of paclitaxel or vincristine for 1 hour. Drug was then removed by washing cells with PBS and blocked in 10% FCS/PBS. For dual staining, cells were first labelled with an antibody to class III β-tubulin which was exposed to cells incubated at 37° C. for 30 minutes in a humidified chamber. Following washes in 0.1% Tween 20/PBS at room temperature, the slides were incubated with Cy3 anti-mouse fluorescent-tagged antibody (GE Healthcare) for 40 minutes in a humidified chamber in the dark at room temperature. Following incubation, the slides were washed again in 0.1% Tween 20/PBS. This was then followed by staining with α-tubulin and Cy2 anti-mouse fluorescent tagged antibody (GE Healthcare). Slides were mounted on a coverslip using DAPI II Counterstain (Vysis Inc., Downers Grove, Ill.). Immunofluorescence microscopy was performed and images were captured using a Sensicam Charged Coupled Device camera (PCO Imaging, Kelheim, Bavaria, Germany) and the Image-Pro® Plus 4.1 software (Media Cybernetics, L.P., Silver Spring, Md.).

[2] = tested on: Calu-6 cells; assay: Drug-treated clonogenic assay on siRNA-transfected cells
Experimental: Cells were transfected for 24 h and approximately 600 cells (for Calu-6) or 150 cells (for H460) were seeded into each well of a 6-well plate and allowed to attach for 4-6 h. The cell lines used in this study were not subject to prior drug selection, and are likely to represent intrinsic drug resistance observed in lung carcinoma.
Cells were then treated with increasing concentrations of various anti-mitotic drugs. Following a 3-day incubation at 37° C., the drug-containing medium was removed and replaced with fresh complete medium. Medium was changed at 3-4 day intervals for 7 to 10 days until visible colonies formed. […] Surviving colonies were simultaneously fixed and stained with 0.5% crystal violet in methanol, rinsed with water to remove excess stain and air-dried overnight.
The colonies in each well were manually counted, and the results were presented as surviving fraction according to the formula: surviving fraction was calculated as follows: colony number/(number of cells seeded×plating efficiency), where plating efficiency is equivalent to the colony number divided by the number of cells seeded in the drug-free medium. Dose-response curves were plotted for each drug-cell line combination and inhibitory dose (ID50) values were extrapolated from this curve using GraphPad Prism program (GraphPad Software, version 4, San Diego, Calif.). ID50 was defined as the concentration of the drug required to reduce the number of colonies in drug-treated wells to 50% of that of the relevant untreated control wells. The ID50 values were the means of at least four independent experiments.
To quantitate any change in drug sensitivity, drug treated clonogenic assays were performed. Twenty-four hours after siRNA transfection, cells were harvested and plated into 6-well plates for 6 h, prior to the addition of various drugs as indicated in the figure legends. After 72 h incubation, the drug-containing media was removed and replaced with complete growth media. Medium was changed every 3 days for 7 to 10 days until visible colonies formed. Colonies were simultaneously fixed and stained with 0.5% crystal violet in methanol, and manually counted. Individual stained colonies in each well were counted and the surviving fraction was calculated as follows: colony number/(number of cells seeded×plating efficiency), where plating efficiency equals the colony number divided by the number of cells seeded in drug-free media.

[3] = tested on: NSCLC H460 cells; assay: Drug-treated clonogenic assay (surviving fraction, ID50) on siRNA/shRNA-transfected cells; details: for IC50: Homo sapiens; for change in drug sensitivity (clonogenic survival): H460
In short: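 Cells transfected with siRNA/shRNA for 24 h, plated (600 Calu-6 or 150 H460 cells/well) and after 4-6 h treated with anti-mitotic drugs for 72 h at 37 °C, then grown drug-free 7-10 days. Crystal-violet colonies counted; surviving fraction corrected for plating efficiency; ID50 = 50% colony reduction vs untreated, mean of ≥4 experiments.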

[4] = tested on: H460 cells; assay: Cell cycle analysis by flow cytometry (propidium iodide); details: 24 h
Experimental: The distribution of DNA content in βII or βIVb tubulin siRNA-transfected H460 cells was determined by flow cytometry. After 72 h transfection, transfected cells were exposed to vincristine at 5 nM or 40 nM concentrations for 24 h. On the day of analysis, both adherent and floating cells were harvested, washed with PBS and then stained with a solution containing 0.4% Triton® X-100 (Sigma), 50 μg/ml propidium iodide (Sigma), and 2 μg/ml DNase-free RNase (Roche, Indianapolis, Ind.) in the dark for 15 min at 37′C. DNA content was measured by a FACSCalibur flow cytometer (Becton Dickinson, San Diego, Calif.). The flow rate was <200 nuclei per second and 10,000 cells from each sample were analysed. Measurements were performed under the same instrumental settings. The CellQuest® program was used to quantitate the distribution of cells in each cell cycle phase: sub-G1 (apoptotic cells), G1, S and G2/M.
To determine whether βIII-tubulin silencing affects the cell cycle profiles, cell cycle analysis using flow cytometry was performed. Cell cycle analysis was determined by transfecting H460 cells with siRNA for 72 h and harvesting (adherent and suspension) cells 24 h after drug treatment. DNA content was stained for 15 min at 37° C. with a solution containing 0.4% Triton® X-100 (Sigma-Aldrich), 50 μg/ml propidium iodide (Sigma-Aldrich), and 2 μg/ml DNAse-free RNAse (Roche, Indianapolis, Ind.). The cells were then analyzed for cell cycle perturbation using a FACSCalibur (Becton-Dickinson, Franklin Lakes, N.J.). The CellQuest® program was used to quantitate the distribution of cells in each cell cycle phase: sub-G1(apoptotic cells), G1, S and G2/M.

[5] = class II β-tubulin siRNA knockdown vs controls
[6] = class IVb β-tubulin siRNA knockdown vs controls

## CC(=O)O[C@H]1C(=O)[C@@]2(C)[C@H]([C@H](OC(=O)c3ccccc3)[C@]3(O)C[C@H](OC(=O)[C@H](O)[C@@H](NC(=O)c4ccccc4)c4ccccc4)C(C)=C1C3(C)C)[C@]1(OC(C)=O)CO[C@@H]1C[C@@H]2O [Paclitaxel, paclitaxel]
[1]; βII siRNA-transfected Calu-6, 10 nM drug
  microtubule morphology: did not appear significantly different
[1]; βIII siRNA-transfected Calu-6, 10 nM drug
  microtubule morphology: extensive disruption of the microtubule cytoskeleton
[2]; [5]
  change in drug sensitivity (clonogenic survival): did not significantly potentiate the cytotoxicity
[2]; [6]
  change in drug sensitivity (clonogenic survival): no effect on sensitivity
[3]; NCI-H460, Table 2, 27-mer βIII siRNA Sequence-8 H460 cells, read-out: ID50 ± SEM
  IC50: 1.7 ± 0.043 nM
[3]; NCI-H460, Table 2, 27-mer βIII siRNA Sequence-11 H460 cells, read-out: ID50 ± SEM
  IC50: 1.78 ± 0.07 nM
[3]; NCI-H460, Table 2, Ctrl-1 (27-mer control siRNA) H460 cells, read-out: ID50 ± SEM
  IC50: 2.89 ± 0.165 nM
[3]; NCI-H460, Table 2, mock-transfected H460 cells, read-out: ID50 ± SEM
  IC50: 2.63 ± 0.136 nM
[3]; NCI-H460, Table 3, H460 Ctrl clone 1, read-out: Paclitaxel ID50 ± SEM
  IC50: 2.75 ± 0.131 nM
[3]; NCI-H460, Table 3, H460 Ctrl clone 2, read-out: Paclitaxel ID50 ± SEM
  IC50: 2.83 ± 0.093 nM
[3]; NCI-H460, Table 3, H460 βIII shRNA clone 4, read-out: Paclitaxel ID50 ± SEM
  IC50: 1.36 ± 0.087 nM
[3]; NCI-H460, Table 3, H460 βIII shRNA clone 59, read-out: Paclitaxel ID50 ± SEM
  IC50: 1.78 ± 0.07 nM
[3]; NCI-H460, Table 3, H460 βIII shRNA clone 60, read-out: Paclitaxel ID50 ± SEM
  IC50: 1.58 ± 0.095 nM
[3]; Table 2, 27-mer βIII siRNA Sequence-8 H460 cells
  RS (relative sensitivity): (1.55, <0.0001***)
[3]; Table 2, 27-mer βIII siRNA Sequence-11 H460 cells
  RS (relative sensitivity): (1.42, 0.0001***)
[3]; Table 2, Ctrl-1 H460 cells
  RS (relative sensitivity): (0.91, NS)
[3]; Table 3, Ctrl clone 2 compared to ctrl clone 1
  RS (relative sensitivity): (0.97, NS)
[3]; Table 3, βIII shRNA clone 4 compared to ctrl clone 1
  RS (relative sensitivity): (2.03, <0.0001***)
[3]; Table 3, βIII shRNA clone 59 compared to ctrl clone 1
  RS (relative sensitivity): (1.55, <0.0001***)
[3]; Table 3, βIII shRNA clone 60 compared to ctrl clone 1
  RS (relative sensitivity): (1.74, <0.0001***)
[3]; [5]
  change in drug sensitivity (clonogenic survival): did not significantly potentiate the cytotoxicity
[3]; [6]
  change in drug sensitivity (clonogenic survival): did not significantly enhance the cytotoxicity
[3]; βIII-tubulin siRNA silencing vs controls
  change in drug sensitivity (clonogenic survival): significant increase in sensitivity
[4]; control siRNA cells, 40 nM
  cell cycle profile: marked G2/M block
[4]; βIII-tubulin siRNA cells vs control siRNA, 5 nM
  cell cycle profile: higher sub-G1 (apoptotic cells) content
[4]; βIII-tubulin siRNA cells, 40 nM
  cell cycle profile: marked increase in the sub-G1 population
